In patent US8362000B2, “Azetidinyl diamides as monoacylglycerol lipase inhibitors” (Janssen Pharmaceutica NV, priority 2009, dated 2013):
Residue numbers refer to the chain shown, from its start. Where two headings read alike, the source gives them in different places.

Assays:
[1] = target: T1, purified wild type MGL (wt-MGLL 6H-11-313) (Homo sapiens, UniProt Q99685)
T1 sequence (Q99685 1-303): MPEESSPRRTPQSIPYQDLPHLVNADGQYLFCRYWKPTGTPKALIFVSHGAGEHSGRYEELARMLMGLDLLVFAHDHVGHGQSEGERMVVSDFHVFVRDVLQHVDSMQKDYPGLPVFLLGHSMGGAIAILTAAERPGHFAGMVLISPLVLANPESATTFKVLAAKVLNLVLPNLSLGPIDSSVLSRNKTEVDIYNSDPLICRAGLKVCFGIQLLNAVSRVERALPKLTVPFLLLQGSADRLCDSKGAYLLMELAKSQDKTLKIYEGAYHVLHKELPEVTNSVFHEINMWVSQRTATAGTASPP

mutant MGL = target: T2, mutant MGL (Homo sapiens, UniProt Q99685, L169S/L176S); experiment: MGL ThermoFluor assay - mutant; format: binding
T2 sequence (Q99685 1-303 L169S/L176S): T1 sequence (Q99685 1-303) with L169S, L176S

[2] = ThermoFluor concentration-response, read-out: MGL mutant ThermoFluor Kd
[3] = ThermoFluor, compound concentration measured by qNMR, read-out: MGL mutant ThermoFluor qKd (using qNMR conc.)
[4] = ThermoFluor thermal stability binding assay, read-out: MGL mutant ThermoFluor Kd
[5] = ThermoFluor, compound concentration measured by qNMR, read-out: MGL mutant ThermoFluor qKd (μM) (using qNMR conc.)
[6] = compound concentration measured by qNMR, read-out: MGL mutant ThermoFluor qKd (using qNMR conc.)

| SMILES | IC50 [1] [nM] | Kd (mutant MGL; [2]) [µM] | also measured |
| --- | --- | --- | --- |
| O=C(c1ccc2c(-c3ccccc3)c(-c3ccccc3)[nH]c2c1)N1CC(N2CCN(C(=O)c3nccs3)CC2)C1 [Cpd 1119] | 17 | – | Kd (mutant MGL; [3]): 0.02 µM |
| O=C(c1ccc2c(c1)[nH]c(=O)n2-c1ccc(C(F)(F)F)cc1)N1CC(N2CCN(C(=O)c3cscn3)CC2)C1 [Cpd 942] | 216 | 0.135 | – |
| O=C(c1ccc(Oc2cccc(F)n2)cc1)N1CC(N2CCN(C(=O)c3nccs3)CC2)C1 [Cpd 715] | 135 | 0.167 | – |
| O=C(c1cc2cc(Cl)ccc2o1)N1CCN(C2CN(C(=O)c3nccs3)C2)CC1 [Cpd 785] | 1190 | 0.5 | – |
| O=C(c1ccc2c(ccn2-c2ccc(F)cc2)c1)N1CC(N2CCN(C(=O)c3ccc(F)s3)CC2)C1 [Cpd 1427] | 6 | – | Kd (mutant MGL; [5]): 0.01 µM |
| O=C(c1nccs1)N1CCN(C2CN(C(=O)c3cccc4oc(-c5ccc(F)cc5)nc34)C2)CC1 [Cpd 1257] | 827 | – | Kd (mutant MGL; [4]): 0.009 µM |
| O=C(c1ccc2c(ccn2-c2ccc(C(F)(F)F)cn2)c1)N1CC(N2CCN(C(=O)c3nccs3)CC2)C1 [Cpd 1314, 5-({3-[4-(1,3-Thiazol-2-ylcarbonyl)piperazin-1-yl]azetidin-1-yl}carbonyl)-1-[5-(trifluoromethyl)pyridin-2-yl]-1H-indole] | < 5 | – | Kd (mutant MGL; [3]): 0.001 µM |
| O=C(c1ccc2c(ccn2-c2ccc(F)cc2)c1)N1CC(N2CCN(C(=O)c3ccc(Cl)s3)CC2)C1 [Cpd 1423] | 278 | – | Kd (mutant MGL; [5]): 0.176 µM |
| Cc1c(C(=O)N2CC(N3CCN(C(=O)c4nccs4)CC3)C2)oc2ccc(F)cc12 [Cpd 751] | 402 | 1.32 | – |
| O=C(c1ccccc1)N1CCN(C2CN(C(=O)c3ccc(Oc4ccc(Cl)cn4)cc3)C2)CC1 [Cpd 520] | 2030 | 2 | – |
| Cc1cc2c(ccn2-c2ccc(F)cc2)cc1C(=O)N1CC(N2CCN(C(=O)c3nccs3)CC2)C1 [Cpd 1415] | 115 | – | Kd (mutant MGL; [6]): 0.011 µM |
| Cc1ccc2c(C(F)(F)F)c(C(=O)N3CC(N4CCN(C(=O)c5ccccc5)CC4)C3)sc2c1 [Cpd 510, 1-(1-{[6-Methyl-3-(trifluoromethyl)-1-benzothiophen-2-yl]carbonyl}azetidin-3-yl)-4-(phenylcarbonyl)piperazine] | 181 | 0.068 | – |
| O=C(c1ccc2nc(-c3ccccc3)oc2c1)N1CCN(C2CN(C(=O)c3nccs3)C2)CC1 [Cpd 1233] | 343 | – | Kd (mutant MGL; [4]): 0.19 µM |
| O=C(c1cscn1)N1CCN(C2CN(C(=O)c3cccc4nc(-c5cccc(Cl)c5)oc34)C2)CC1 [Cpd 1238] | 437 | – | Kd (mutant MGL; [4]): 0.125 µM |
| O=C(c1ccc2c(c1)ncn2CC(F)(F)F)N1CC(N2CCN(C(=O)c3nccs3)CC2)C1 [Cpd 761] | 583 | – | Kd (mutant MGL; [6]): 0.092 µM |
| O=C(c1ccc2c(c1)[nH]c(=O)n2CC(F)(F)F)N1CC(N2CCN(C(=O)c3nccs3)CC2)C1 [Cpd 937] | 250 | 0.096 | – |
| O=C(c1ccc2[nH]c(-c3ccccc3)nc2c1)N1CCN(C2CN(C(=O)c3nccs3)C2)CC1 [Cpd 1271] | 1570 | 1 | – |

| SMILES | IC50 [1] [nM] | Kd (mutant MGL; [2]) [µM] | also measured |
| --- | --- | --- | --- |
| O=C(c1ccc(CNc2cccc(Cl)c2)cc1)N1CC(N2CCN(C(=O)C(F)(F)F)CC2)C1 [Cpd 964] | 1700 | – | Kd (mutant MGL; [6]): 3.2 µM |
| O=C(c1cnc2cc(Cl)ccc2c1)N1CC(N2CCN(C(=O)c3nccs3)CC2)C1 [Cpd 787] | 1210 | – | Kd (mutant MGL; [3]): 0.247 µM |
| COc1cccc2c(C)c(C(=O)N3CC(N4CCN(C(=O)c5nccs5)CC4)C3)[nH]c12 [Cpd 760] | 581 | 0.199 | – |
| O=C(c1ccc2c(c1)[nH]c(=O)n2-c1ccc(C(F)(F)F)cc1)N1CC(N2CCN(C(=O)c3nccs3)CC2)C1 [Cpd 936] | 13 | 0.012 | – |
| O=C1c2ccccc2-c2ccc(C(=O)N3CC(N4CCN(C(=O)c5nccs5)CC4)C3)cc21 [Cpd 698] | 65 | – | Kd (mutant MGL; [3]): 0.085 µM |
| O=C(c1ccc2c(c1)CCN2C(=O)c1ccccc1)N1CC(N2CCN(C(=O)c3nccs3)CC2)C1 [Cpd 724, 1-(Phenylcarbonyl)-5-({3-[4-(1,3-thiazol-2-ylcarbonyl)piperazin-1-yl]azetidin-1-yl}carbonyl)-2,3-dihydro-1H-indole] | 206 | 0.05 | – |
| Cc1ccc(-n2ccc3cc(C(=O)N4CC(N5CCN(C(=O)c6nccs6)CC5)C4)ccc32)nc1 [Cpd 1073, 1-(5-Methylpyridin-2-yl)-5-({3-[4-(1,3-thiazol-2-ylcarbonyl)piperazin-1-yl]azetidin-1-yl}carbonyl)-1H-indole] | 34 | – | Kd (mutant MGL; [3]): 0.087 µM |
| O=C(c1ccc(Cc2cccc(C(F)(F)F)c2)cc1)N1CC(N2CCN(C(=O)c3nccs3)CC2)C1 [Cpd 995] | < 5 | 0.002 | – |
| O=C(c1nccs1)N1CCN(C2CN(C(=O)c3cn(Cc4ccccc4)c4ccccc34)C2)CC1 [Cpd 993] | 1510 | 0.333 | – |
| O=C(c1ccccc1)N1CCN(C2CN(C(=O)c3ccc(N4CCOCC4)nc3)C2)CC1 [Cpd 1485, 4-[5-({3-[4-(Phenylcarbonyl)piperazin-1-yl]azetidin-1-yl}carbonyl)pyridin-2-yl]morpholine] | > 16700 | 10 | – |
| O=C(c1ccc2c(ccn2-c2ccncc2)c1)N1CC(N2CCN(C(=O)c3nccs3)CC2)C1 [Cpd 1127, 1-Pyridin-4-yl-5-({3-[4-(1,3-thiazol-2-ylcarbonyl)piperazin-1-yl]azetidin-1-yl}carbonyl)-1H-indole] | 20 | – | Kd (mutant MGL; [3]): 0.098 µM |
| O=C(c1cscn1)N1CCN(C2CN(C(=O)c3cccc(-c4ccccc4)c3F)C2)CC1 [Cpd 1240] | 459 | 2.49 | – |
| O=C(c1nccs1)N1CCN(C2CN(C(=O)c3cccc4oc(-c5cccnc5)nc34)C2)CC1 [Cpd 1251] | 684 | – | Kd (mutant MGL; [4]): 0.146 µM |
| Cc1c(C(=O)N2CC(N3CCN(C(=O)c4nccs4)CC3)C2)nc2ccc(Br)cn12 [Cpd 868] | 12100 | – | Kd (mutant MGL; [3]): > 23.1 µM |
| Cc1c(C(=O)N2CCN(C3CN(C(=O)c4cncs4)C3)CC2)sc2cc(C(F)(F)F)ccc12 [Cpd 726] | 218 | 0.127 | – |
| O=C(c1ccccc1)N1CCN(C2CN(C(=O)c3ccc4c(-c5ccc(C(F)(F)F)cc5)ncnc4c3)C2)CC1 [Cpd 597] | 600 | 0.153 | – |

Further lines, with some results ahead:

| IC50 [1] [nM] | Kd (mutant MGL; [2]) [µM] | SMILES | also measured |
| --- | --- | --- | --- |
| 16 | 0.054 | NC(=O)c1cc(-n2ccc3cc(C(=O)N4CC(N5CCN(C(=O)c6nccs6)CC5)C4)ccc32)ccc1F [Cpd 1418, 2-fluoro-5-[5-({3-[4-(1,3-thiazol-2-ylcarbonyl)piperazin-1-yl]azetidin-1-yl}carbonyl)-1H-indol-1-yl]benzamide] | – |
| > 16700 | – | O=C(c1nc2cc(F)ccc2[nH]1)N1CC(N2CCN(C(=O)c3nccs3)CC2)C1 [Cpd 1443] | Kd (mutant MGL; [4]): > 31.2 µM |
| 1060 | – | O=C(c1ccc(S(=O)(=O)N2CCCCC2)cc1)N1CC(N2CCN(C(=O)c3nccs3)CC2)C1 [Cpd 947] | Kd (mutant MGL; [3]): 0.653 µM |
| 62 | – | COc1cc(-n2ccc3cc(C(=O)N4CC(N5CCN(C(=O)c6ccccc6)CC5)C4)ccc32)ccc1C#N [Cpd 633] | Kd (mutant MGL; [4]): 0.157 µM |
| 270 | – | O=C(c1nccs1)N1CCN(C2CN(C(=O)c3cn(-c4ccc(F)cc4)c4ccccc34)C2)CC1 [Cpd 1224] | Kd (mutant MGL; [5]): 0.189 µM |
| 2420 | – | O=C(c1ccc(-c2ccccc2)cc1)N1CCN(C2CN(C(=O)c3cscn3)C2)C2(CC2)C1 [Cpd 1286] | Kd (mutant MGL; [4]): 0.032 µM |
| 40 | – | O=C(c1ccccc1)N1CCN(C2CN(C(=O)c3cc4ccn(-c5ccc(F)cc5)c4cc3F)C2)CC1 [Cpd 631] | Kd (mutant MGL; [6]): 0.052 µM |
| 6790 | – | O=C(c1nccs1)N1CCN(C2CN(C(=O)c3cccc4[nH]c(Cc5ccccc5)nc34)C2)CC1 [Cpd 980] | Kd (mutant MGL; [4]): 5 µM |
| 5260 | – | O=C(c1ccc2c(c1)ncn2CC(F)(F)F)N1CC(N2CCN(C(=O)c3cscn3)CC2)C1 [Cpd 841] | Kd (mutant MGL; [6]): 0.917 µM |
| 986 | – | Cc1nc2cc(C(=O)N3CC(N4CCN(C(=O)c5cscn5)CC4)C3)ccc2n1-c1ccc(F)c(F)c1 [Cpd 1264] | Kd (mutant MGL; [6]): 0.251 µM |
| 2510 | 2.16 | O=C(c1cscn1)N1CCN(C2CN(C(=O)c3cc(-c4ccccc4)ccc3Cl)C2)CC1 [Cpd 1288] | – |
| 53 | 0.145 | O=C(c1ccccc1)N1CCN(C2CN(C(=O)c3ccc4c(ccn4-c4ccc(Cl)cn4)c3)C2)CC1 [Cpd 629, 1-(5-Chloropyridin-2-yl)-5-({3-[4-(phenylcarbonyl)piperazin-1-yl]azetidin-1-yl}carbonyl)-1H-indole] | – |
| 902 | 0.257 | CC(C)(C)c1cc(C(=O)N2CC(N3CCN(C(=O)c4nccs4)CC3)C2)cc(C(C)(C)C)c1 [Cpd 776] | – |
| 14000 | – | O=C(c1ccc(Oc2ccc(Br)cn2)cc1)N1CC(N2CCN(C(=O)C(F)(F)F)CC2)C1 [Cpd 872] | Kd (mutant MGL; [6]): 10 µM |
| 465 | – | Cc1c(C(=O)N2CC(N3CCN(C(=O)c4ccccc4)CC3)C2)sc2cc(F)ccc12 [Cpd 516] | Kd (mutant MGL; [4]): 0.04 µM |
